Data published in patent publication US9745283B2, “Uracil derivatives as AXL and c-MET kinase inhibitors” (priority 2011, dated 2017).
pIC50: −log10 of the molar value.

What was measured:
[1] = target: recombinant human baculovirus-expressed AXL (Homo sapiens (Human), UniProt P30530); experiment: AXL Kinase Assay (HTRF KinEASE); assay type: biochemical; settings: average of two or more determinations
[2] = target: recombinant human baculovirus-expressed cMET (Homo sapiens (Human), UniProt P08581); experiment: C-MET Kinase Assay (HTRF KinEASE); assay type: biochemical; settings: average of two or more determinations; read-out: c-MET IC50
How it was run: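 HTRF KinEASE format with recombinant human baculovirus-expressed cMET at 8 ng/mL, biotinylated peptide at 0.1 μM and ATP at 0.02 μM. IC50 came from percent control activity versus log concentration, fitted by nonlinear regression to a variable-slope sigmoidal equation with bottom fixed at 0 and top at 100.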

| pIC50 [1] | pIC50 [2] | SMILES |
| --- | --- | --- |
| > 8.00 | 7.00 to 8.00 | COc1cc2nccc(Oc3ccc(NC(=O)c4cn(C)c(=O)n(-c5ccc(F)cc5)c4=O)c(F)c3)c2cc1OC [Example 86, 3-(4-Fluoro-phenyl)-1-methyl-2,4-dioxo-1,2,3,4-tetrahydro-pyrimidine-5-carboxylic acid [4-(6,7-dimethoxy-quinolin-4-yloxy)-2-fluoro-phenyl]-amide] |
| > 8.00 | 7.00 to 8.00 | CCn1cc(C(=O)Nc2ccc(Oc3ccnc4cc(OC)c(OC)cc34)cc2F)c(=O)n(-c2ccc(F)cc2)c1=O [Example 87, 1-Ethyl-3-(4-fluoro-phenyl)-2,4-dioxo-1,2,3,4-tetrahydro-pyrimidine-5-carboxylic acid [4-(6,7-dimethoxy-quinolin-4-yloxy)-2-fluoro-phenyl]-amide] |
| > 8.00 | 7.00 to 8.00 | C=CCn1cc(C(=O)Nc2ccc(Oc3ccnc4cc(OC)c(OC)cc34)cc2F)c(=O)n(-c2ccc(F)cc2)c1=O [Example 88, 1-Allyl-3-(4-fluoro-phenyl)-2,4-dioxo-1,2,3,4-tetrahydro-pyrimidine-5-carboxylic acid [4-(6,7-dimethoxy-quinolin-4-yloxy)-2-fluoro-phenyl]-amide] |
| > 8.00 | 7.00 to 8.00 | CCn1cc(C(=O)Nc2cc(F)c(Oc3ccnc4cc(OC)c(OC)cc34)c(F)c2)c(=O)n(-c2ccc(F)cc2)c1=O [Example 90, 1-Ethyl-3-(4-fluoro-phenyl)-2,4-dioxo-1,2,3,4-tetrahydro-pyrimidine-5-carboxylic acid [4-(6,7-dimethoxy-quinolin-4-yloxy)-3,5-difluoro-phenyl]-amide] |
| > 8.00 | 7.00 to 8.00 | CCn1c(=O)c(C(=O)Nc2ccc(Oc3ccnc4cc(OC)c(OC)cc34)c(F)c2)cn(-c2ccc(F)cc2)c1=O [Example 91, 3-Ethyl-1-(4-fluoro-phenyl)-2,4-dioxo-1,2,3,4-tetrahydro-pyrimidine-5-carboxylic acid [4-(6,7-dimethoxy-quinolin-4-yloxy)-3-fluoro-phenyl]-amide] |
| > 8.00 | 7.00 to 8.00 | CCn1cc(C(=O)Nc2ccc(Oc3ccnc4cc(OC)c(OC)cc34)c(F)c2)c(=O)n(-c2ccccc2)c1=O [Example 100, 1-Ethyl-2,4-dioxo-3-phenyl-1,2,3,4-tetrahydro-pyrimidine-5-carboxylic acid [4-(6,7-dimethoxy-quinolin-4-yloxy)-3-fluoro-phenyl]-amide] |
| > 8.00 | 7.00 to 8.00 | COc1cc2nccc(Oc3ccc(NC(=O)c4cn(C(C)C)c(=O)n(-c5ccccc5)c4=O)cc3F)c2cc1OC [Example 101, 1-Isopropyl-2,4-dioxo-3-phenyl-1,2,3,4-tetrahydro-pyrimidine-5-carboxylic acid [4-(6,7-dimethoxy-quinolin-4-yloxy)-3-fluoro-phenyl]-amide] |
| > 8.00 | > 8.00 | CCCn1cc(C(=O)Nc2ccc(C(=O)c3ccnc4cc(OC)c(OC)cc34)c(F)c2)c(=O)n(-c2ccc(F)cc2)c1=O [Example 102, 3-(4-Fluoro-phenyl)-2,4-dioxo-1-propyl-1,2,3,4-tetrahydro-pyrimidine-5-carboxylic acid [4-(6,7-dimethoxy-quinoline-4-carbonyl)-3-fluoro-phenyl]-amide] |
| > 8.00 | 7.00 to 8.00 | COc1cc2nccc(Oc3ccc(NC(=O)c4nn(C(C)C)c(=O)n(-c5ccc(F)cc5)c4=O)cc3F)c2cc1OC [Example 103, 4-(4-Fluoro-phenyl)-2-isopropyl-3,5-dioxo-2,3,4,5-tetrahydro-[1,2,4]triazine-6-carboxylic acid [4-(6,7-dimethoxy-quinolin-4-yloxy)-3-fluoro-phenyl]-amide] |
| > 8.00 | > 8.00 | COc1cc2nccc(Oc3ccc(NC(=O)c4nn(CCO)c(=O)n(-c5ccc(F)cc5)c4=O)cc3F)c2cc1OC [Example 108, 4-(4-Fluorophenyl)-2-(2-hydroxyethyl)-3,5-dioxo-2,3,4,5-tetrahydro-[1,2,4]triazine-6-carboxylic acid [4-(6,7-dimethoxyquinolin-4-yloxy)-3-fluorophenyl]-amide] |
| > 8.00 | 7.00 to 8.00 | COc1cc2nccc(Oc3ccc(NC(=O)c4nn(CC(C)=O)c(=O)n(-c5ccc(F)cc5)c4=O)cc3F)c2cc1OC [Example 112, 4-(4-Fluorophenyl)-3,5-dioxo-2-(2-oxo-propyl)-2,3,4,5-tetrahydro-[1,2,4]triazine-6-carboxylic acid [4-(6,7-dimethoxyquinolin-4-yloxy)-3-fluorophenyl]-amide] |
| > 8.00 | 7.00 to 8.00 | C#CCn1c(=O)c(C(=O)Nc2ccc(Oc3ccnc4cc(OC)c(OC)cc34)c(F)c2)nn(C)c1=O [Example 115, 2-Methyl-3,5-dioxo-4-prop-2-ynyl-2,3,4,5-tetrahydro-[1,2,4]triazine-6-carboxylic acid [4-(6,7-dimethoxy-uinolin-4-yloxy)-3-fluoro-phenyl]-amide] |
| > 8.00 | 7.00 to 8.00 | COc1cc2nccc(Oc3ccc(NC(=O)c4nn(C)c(=O)n(CC5CCC5)c4=O)cc3F)c2cc1OC [Example 128, 4-Cyclobutylmethyl-2-methyl-3,5-dioxo-2,3,4,5-tetrahydro-[1,2,4]triazine-6-carboxylic acid [4-(6,7-dimethoxy-quinolin-4-yloxy)-3-fluoro-phenyl]-amide] |

| SMILES | pIC50 [1] | pIC50 [2] |
| --- | --- | --- |
| COc1cc2nccc(Oc3ccc(NC(=O)c4nn(C)c(=O)n(-c5ccc(F)cc5)c4=O)cc3F)c2cc1OC [Example 104, 4-(4-Fluorophenyl)-2-methyl-3,5-dioxo-2,3,4,5-tetrahydro-[1,2,4]triazine-6-carboxylic acid [4-(6,7-dimethoxy-quinolin-4-yloxy)-3-fluoro-phenyl]-amide] | > 8.00 | > 8.00 |
| CCn1nc(C(=O)Nc2ccc(Oc3ccnc4cc(OC)c(OC)cc34)c(F)c2)c(=O)n(-c2ccc(F)cc2)c1=O [Example 105, 2-Ethyl-4-(4-fluoro-phenyl)-3,5-dioxo-2,3,4,5-tetrahydro-[1,2,4]triazine-6-carboxylic acid [4-(6,7-dimethoxy-quinolin-4-yloxy)-3-fluoro-phenyl]-amide] | > 8.00 | 7.00 to 8.00 |
| CC(C)n1nc(C(=O)Nc2ccc(Oc3ccnc4cc5c(cc34)OCCO5)c(F)c2)c(=O)n(-c2ccc(F)cc2)c1=O [Example 106, 4-(4-Fluorophenyl)-2-isopropyl-3,5-dioxo-2,3,4,5-tetrahydro-[1,2,4]triazine-6-carboxylic acid [4-(2,3-dihydro-[1,4]dioxino[2,3-g]quinolin-9-yloxy)-3-fluorophenyl]-amide] | > 8.00 | 7.00 to 8.00 |
| COc1cc2nccc(Oc3ccc(NC(=O)c4n[nH]c(=O)n(-c5ccc(F)cc5)c4=O)cc3F)c2cc1OC [Example 107, 4-(4-Fluoro-phenyl)-3,5-dioxo-2,3,4,5-tetrahydro-[1,2,4]triazine-6-carboxylic acid [4-(6,7-dimethoxy-quinolin-4-yloxy)-3-fluoro-phenyl]-amide] | > 8.00 | > 8.00 |
| COc1cc2nccc(Oc3ccc(NC(=O)c4nn(C(C)C)c(=O)n(-c5ccc(F)cc5)c4=O)nc3)c2cc1OC [Example 110, 4-(4-Fluoro-phenyl)-2-isopropyl-3,5-dioxo-2,3,4,5-tetrahydro-[1,2,4]triazine-6-carboxylic acid [5-(6,7-dimethoxy-quinolin-4-yloxy)-pyridin-2-yl]-amide] | > 8.00 | 7.00 to 8.00 |
| COc1ccc2c(Oc3ccc(NC(=O)c4nn(C(C)C)c(=O)n(-c5ccc(F)cc5)c4=O)cc3F)ccnc2c1 [Example 111, 4-(4-Fluorophenyl)-2-isopropyl-3,5-dioxo-2,3,4,5-tetrahydro-[1,2,4]triazine-6-carboxylic acid [3-fluoro-4-(7-methoxyquinolin-4-yloxy)-phenyl]-amide] | > 8.00 | 7.00 to 8.00 |
| C#CCn1nc(C(=O)Nc2ccc(Oc3ccnc4cc(OC)c(OC)cc34)c(F)c2)c(=O)n(-c2ccc(F)cc2)c1=O [Example 113, 4-(4-Fluoro-phenyl)-3,5-dioxo-2-prop-2-ynyl-2,3,4,5-tetrahydro-[1,2,4]triazine-6-carboxylic acid [4-(6,7-dimethoxy-quinolin-4-yloxy)-3-fluoro-phenyl]-amide] | > 8.00 | > 8.00 |
| COc1cc2nccc(Oc3ccc(NC(=O)c4nn(C)c(=O)n(CC5CC5)c4=O)cc3F)c2cc1OC [Example 125, 4-Cyclopropylmethyl-2-methyl-3,5-dioxo-2,3,4,5-tetrahydro-[1,2,4]triazine-6-carboxylic acid [4-(6,7-dimethoxy-quinolin-4-yloxy)-3-fluoro-phenyl]-amide] | > 8.00 | 7.00 to 8.00 |
| COc1cc2nccc(Oc3ccc(NC(=O)c4nn(C)c(=O)n(CC5CCOCC5)c4=O)cc3F)c2cc1OC [Example 126, 2-Methyl-3,5-dioxo-4-(tetrahydro-pyran-4-ylmethyl)-2,3,4,5-tetrahydro-[1,2,4]triazine-6-carboxylic acid [4-(6,7-dimethoxy-quinolin-4-yloxy)-3-fluoro-phenyl]-amide] | > 8.00 | 6.00 to 7.00 |
| COc1cc2nccc(Oc3ccc(NC(=O)c4nn(C)c(=O)n(CC(C)C)c4=O)cc3F)c2cc1OC [Example 127, 4-Isobutyl-2-methyl-3,5-dioxo-2,3,4,5-tetrahydro-[1,2,4]triazine-6-carboxylic acid [4-(6,7-dimethoxy-quinolin-4-yloxy)-3-fluoro-phenyl]-amide] | > 8.00 | 7.00 to 8.00 |
| COc1cc2nccc(Oc3ccc(NC(=O)c4nn(C)c(=O)n(CC(C)(C)C)c4=O)cc3F)c2cc1OC [Example 129, 4-(2,2-Dimethylpropyl)-2-methyl-3,5-dioxo-2,3,4,5-tetrahydro-[1,2,4]triazine-6-carboxylic acid [4-(6,7-dimethoxyquinolin-4-yloxy)-3-fluorophenyl]-amide] | > 8.00 | 7.00 to 8.00 |
